Data as given in patent publication US10933009B2, “Formulations and methods for treating dermatological disorders and diseases” (VAPOGENIX, INC., priority 2011, dated 2021).

Assay: Isoflurane remaining in uncapped vials, determined by weighing over time
Format: physicochemical
Procedure: In the Examples that follow, the stability of isoflurane in the described compositions was determined in two ways. First, the compositions were examined for the presence of phase separation at the macroscopic level. Secondly, isoflurane content of the compositions was determined by weighing the remaining isoflurane in the composition when they were left uncapped over time. Briefly, glass vials were filled with 5-10 ml of the composition vehicle and then weighed; one of them received only vehicle (i.e., no isoflurane) and served as control. The other vials received varying amounts of isoflurane. They were left uncapped in the hood. Over time, the vials were weighed to see if the isoflurane stayed in the composition or had evaporated. The amount evaporated over time in the vehicle control was subtracted from that in the isoflurane-containing composition.
The pure form of isoflurane is a volatile anesthetic. In order to assess the volatility of isoflurane, two vials received the indicated amounts of pure form isoflurane. The vials were placed in the chemical fume hood and left uncapped. The vials were weighed at the indicated times to determine the amount of evaporated isoflurane. As it is shown in the table below 0.7893 g isoflurane was evaporated within 3 hours, while 3.4825 g isoflurane took approximately 8 hrs to evaporate completely. These amounts of isoflurane are similar to the amounts of isoflurane that were used to prepare the isoflurane compositions in the Examples that follow.

[1] = pure form of isoflurane 0.7893 g, uncapped vial
[2] = pure form of isoflurane 3.4825 g, uncapped vial

time for isoflurane to evaporate (0.7893 g pure isoflurane, uncapped vial in fume hood): ≤ 3 h
time for isoflurane to evaporate completely (3.4825 g pure isoflurane, uncapped vial in fume hood): approximately 8 hrs
0 h (% remaining iso) (pure form of isoflurane 0.7893 g, uncapped vial in fume hood): 100%
0.25 h (% remaining iso) [1]: 85%
1 h (% remaining iso) [1]: 52%
2 h (% remaining iso) [1]: 14%
3 h (% remaining iso) [1]: 0%
0 h (% remaining iso) (pure form of isoflurane 3.4825 g, uncapped vial in fume hood): 100%
0.25 h (% remaining iso) [2]: 96%
1 h (% remaining iso) [2]: 86%
2 h (% remaining iso) [2]: 75%
3 h (% remaining iso) [2]: 62%
5 h (% remaining iso) (pure form of isoflurane 3.4825 g, uncapped vial, 5 h): 38%
7 h (pure form of isoflurane 3.4825 g, uncapped vial, 7 h): 13%
8 h (pure form of isoflurane 3.4825 g, uncapped vial, 8 h): 3%
SMILES: FC(F)OC(Cl)C(F)(F)F (stereo not drawn) [isoflurane]
